Source: the supplement of paper PMC11208160
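Further: IS621 bridge recombinase in Escherichia coli cells against a fixed T5 target plasmid.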

Assay: recombinant UMI read abundance after kanamycin selection (control-corrected) (log10(CPM+1)); higher = more efficient recombination; extreme values may be limits of the assay; sequences stand for … in AGTGCAGAGAAAATCGGCCAGTTTTCTCTGCCTGCAGTCCGCATGCCGTGGGACCCCTTGGGTTCTAACCTGTTGCCTAGATTTATGCAGCGGACTGCCTTTCTCCCAAAGTGATAAACCGG…AGGTTGGTTTCACT; site = the 11-nt donor
How it was run: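 Under IPTG (0.07 mM) plus kanamycin, or without selection, Escherichia coli carrying a UMI-tagged donor and donor-binding-loop pair library and a target plasmid for the IS621 bridge recombinase were plated in two replicates. Recombinant UMIs were PCR-amplified across the donor–target junction and sequenced. Counts were converted to CPM, averaged over replicates, scaled by control-derived factors and reported as log10(CPM+1).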
In the case of “CTAGGTACATGGACCGGTTTTCCCGGTAATCCGTATTTGAC (site ATAGGTACTGT)”, the “recombinant UMI read abundance (log10)” value is reported as 0.
With “CTAGGTACATGGACCGGTTTTCCCGGTAATCCGTATTTGAC (site CTAGGTACTGT)” the “recombinant UMI read abundance (log10)” value was 2.1.
For “CTAGGTACATGGACCGGTTTTCCCGGTAATCCGTATTTGAC (site GTAGGTACTGT)”, the “recombinant UMI read abundance (log10)” value was 0.
With “CTAGGTACATGGACCGGTTTTCCCGGTAATCCGTATTTGAC (site TTAGGTACTGT)” the “recombinant UMI read abundance (log10)” value was 0.
In the case of “CTAGTAACATGGACCGGTTTTCCCGGTAATCCGTATTTGAG (site CTAGTAACTCT)”, the “recombinant UMI read abundance (log10)” value is reported as 2.89.
With “CTAGTAACATGGACCGGTTTTCCCGGTAATCCGTATTTGAG (site CTAGTATCTGT)” the “recombinant UMI read abundance (log10)” value was 0.
With “CTAGTAACATGGACCGGTTTTCCCGGTAATCCGTATTTGTC (site CTAGTAACTGA)” the “recombinant UMI read abundance (log10)” value was 2.78.
For “CTAGTAACATGGACCGGTTTTCCCGGTAATCCGTATTTGTC (site CTAGTATCTGT)”, the “recombinant UMI read abundance (log10)” value was 0.
In the case of “CTAGTACCATGGACCGGTTTTCCCGGTAATCCGTATTTGAC (site CTAGTAACTGT)”, the “recombinant UMI read abundance (log10)” value is reported as 0.
For “CTAGTACCATGGACCGGTTTTCCCGGTAATCCGTATTTGAC (site CTAGTACCTGT)”, the “recombinant UMI read abundance (log10)” value was 0.
With “CTAGTACCATGGACCGGTTTTCCCGGTAATCCGTATTTGAC (site CTAGTAGCTGT)” the “recombinant UMI read abundance (log10)” value was 0.415.
In the case of “CTAGTACCATGGACCGGTTTTCCCGGTAATCCGTATTTGAC (site CTAGTATCTGT)”, the “recombinant UMI read abundance (log10)” value is reported as 2.88.
In the case of “CTAGTATCATGGACCGGTTTTCCCGGTAATCCGTATTTGAA (site CTAGTATCTAT)”, the “recombinant UMI read abundance (log10)” value is reported as 2.59.
With “CTAGTATCATGGACCGGTTTTCCCGGTAATCCGTATTTGAA (site CTAGTATCTCT)” the “recombinant UMI read abundance (log10)” value was 2.4.
In the case of “CTAGTATCATGGACCGGTTTTCCCGGTAATCCGTATTTGAA (site CTAGTATCTGT)”, the “recombinant UMI read abundance (log10)” value is reported as 1.91.
With “CTAGTATCATGGACCGGTTTTCCCGGTAATCCGTATTTGAA (site CTAGTATCTTT)” the “recombinant UMI read abundance (log10)” value was 2.92.
In the case of “CTAGTATCATGGACCGGTTTTCCCGGTAATCCGTATTTGAG (site CTAGTATCTAT)”, the “recombinant UMI read abundance (log10)” value is reported as 2.35.
With “CTAGTATCATGGACCGGTTTTCCCGGTAATCCGTATTTGAG (site CTAGTATCTCT)” the “recombinant UMI read abundance (log10)” value was 2.61.
With “CTAGTATCATGGACCGGTTTTCCCGGTAATCCGTATTTGAG (site CTAGTATCTGT)” the “recombinant UMI read abundance (log10)” value was 1.68.
In the case of “CTAGTATCATGGACCGGTTTTCCCGGTAATCCGTATTTGAG (site CTAGTATCTTT)”, the “recombinant UMI read abundance (log10)” value is reported as 2.29.
With “CTAGTATCATGGACCGGTTTTCCCGGTAATCCGTATTTGTG (site CTAGTATCTCA)” the “recombinant UMI read abundance (log10)” value was 2.97.
In the case of “CTAGTATCATGGACCGGTTTTCCCGGTAATCCGTATTTGTG (site CTAGTATCTGT)”, the “recombinant UMI read abundance (log10)” value is reported as 0.
In the case of “CTAGTCACATGGACCGGTTTTCCCGGTAATCCGTATTTGGG (site CAAGTCACTCC)”, the “recombinant UMI read abundance (log10)” value is reported as 0.00773.
With “CTAGTCACATGGACCGGTTTTCCCGGTAATCCGTATTTGGG (site CCAGTCACTCC)” the “recombinant UMI read abundance (log10)” value was 0.0093.
For “CTAGTCACATGGACCGGTTTTCCCGGTAATCCGTATTTGGG (site CGAGTCACTCC)”, the “recombinant UMI read abundance (log10)” value was 0.00732.
In the case of “CTAGTCACATGGACCGGTTTTCCCGGTAATCCGTATTTGGG (site CTAGTCACTCC)”, the “recombinant UMI read abundance (log10)” value is reported as 0.00791.
With “CTAGTGCCATGGACCGGTTTTCCCGGTAATCCGTATTTGAC (site CTAGTATCTGT)” the “recombinant UMI read abundance (log10)” value was 0.948.
With “CTAGTGCCATGGACCGGTTTTCCCGGTAATCCGTATTTGAC (site CTAGTGCCTGT)” the “recombinant UMI read abundance (log10)” value was 0.95.
In the case of “CTAGTTTCATGGACCGGTTTTCCCGGTAATCCGTATTTGAC (site CTAGTATCTGT)”, the “recombinant UMI read abundance (log10)” value is reported as 2.19.
